Test results published in paper PMC4604048 (The Pediatric infectious disease journal, 2015).

Legend:
[1] = Safety and adverse events through Week 48
[2] = Intensive steady-state plasma pharmacokinetics of dolutegravir, Stage I; assay type: in vivo, human (HIV-1 infected treatment-experienced adolescents); conditions: Stage I N=10, ~1 mg/kg once daily; for AUC(0-t) / concentration at 24 h / Cmax / half-life: human, plasma, oral, 1 mg/kg
[3] = system: virus with R263K mutation at virologic failure; conditions: adult study where R263K mutation was seen; cited from earlier work
HIV-1 = assay: Virologic efficacy: plasma HIV-1 RNA through Week 48; assay type: in vivo, human (HIV-1 infected treatment-experienced adolescents); conditions: Week 48, N=23, dolutegravir plus OBR
CD4 cell count = assay: Change from baseline in CD4 cell count and percentage at Week 48; assay type: in vivo, human (HIV-1 infected treatment-experienced adolescents); conditions: Week 48, dolutegravir plus OBR
HIV = conditions: week 48; cited from earlier work
[4] = in vivo; cited from earlier work
[5] = Grade 1 or 2 transient clinical events, N=23, not considered related to dolutegravir

## C[C@@H]1CCO[C@H]2Cn3cc(C(=O)NCc4ccc(F)cc4F)c(=O)c(O)c3C(=O)N12 [Dolutegravir]
[1]; [5]
  abdominal pain, subjects: 21%
  arthralgia, subjects: 13%
  back pain, subjects: 13%
  decrease appetite, subjects: 30%
  diarrhea, subjects: 35%
  dizziness, subjects: 17%
  extremity pain, subjects: 26%
  fever, subjects: 30%
  headache, subjects: 26%
  lymphadenopathy, subjects: 26%
  nasal congestion, subjects: 30%
  nausea, subjects: 13%
  pharyngeal pain, subjects: 35%
  sinus congestion, subjects: 17%
[1]; through Week 48
  Grade 4 AEs, SAEs or discontinuations due to AEs: no Grade 4 AEs, SAEs or discontinuations due to AEs
[1]; through Week 48, dolutegravir plus OBR
  tolerability: well tolerated
[2]
  C24, GM (geometric mean): 0.90 µg/mL
  CL/F, GM: 78.03 L/h
  CL/F, Mean (SD): 1.25 (±0.97) L/hr
  CL/F, Median (min, max): 0.87 (0.59, 3.83) L/hr
  Tmax, Median (min, max): 3.00 (1.00, 6.00) hr
[2]; AUC0–24, GM, Table 2
  AUC(0-t): 43100 ng·h/mL
[2]; AUC0–24, Mean (SD)
  AUC(0-t): 51600 ng·h/mL
[2]; AUC0–24, Median (min, max)
  AUC(0-t): 52900 ng·h/mL
[2]; C24, GM (geometric mean)
  concentration at 24 h: 900 ng/mL
[2]; C24, Mean (SD)
  concentration at 24 h: 1090 ng/mL
[2]; C24, Median (min, max)
  concentration at 24 h: 1140 ng/mL
[2]; Mean (SD)
  Cmax: 3820 ng/mL
[2]; Median (min, max)
  Cmax: 4010 ng/mL
[2]; T1/2, GM
  half-life: 11.9 h
[2]; T1/2, Median (min, max)
  half-life: 10.4 h
[3]
  dolutegravir FC values at virologic failure: < 2 fold
HIV-1
  Virologic success: proportion with HIV RNA < 400 copies/mL: 74%
  proportion with HIV RNA < 50 copies/mL: 61%
CD4 cell count
  Median (IQR) gain in CD4 cell count: 84 cells/µL

## Cc1nnc(C(=O)NC(C)(C)c2nc(C(=O)NCc3ccc(F)cc3)c(O)c(=O)n2C)o1 [raltegravir]
HIV
  virologic efficacy of the adolescent cohort: 57%

## CCC[C@@]1(CCc2ccccc2)CC(O)=C([C@H](CC)c2cccc(NS(=O)(=O)c3ccc(C(F)(F)F)cn3)c2)C(=O)O1 [tipranavir]
[4]
  children reporting serious adverse events: 25%
  treatment discontinuation due to serious adverse events: 8%
